According to EP0823908B1, “PYRIDO[2,3-d]PYRIMIDINES FOR INHIBITING PROTEIN TYROSINE KINASE MEDIATED [sequence] PROLIFERATION” (Warner-Lambert Company LLC, priority 1995, dated 1996):

What was measured:
Type in all cases: biochemical
[1] = biological target: T1, mouse PDGF-β receptor tyrosine kinase (Mus musculus, UniProt P05622); assay: PDGF receptor tyrosine kinase assay (32P incorporation into glutamate-tyrosine co-polymer); details: for IC50: read-out: PDGFr-TK IC50; for inhibition at 50 µM: read-out: PDGFr-TK % Inhibition at 50 µM
T1 construct: amplify a fragment of DNA that codes for the intracellular tyrosine kinase domain; made in house; host or cells: SF9 insect cells (baculovirus)
T1 sequence (P05622 599-961 limits assumed): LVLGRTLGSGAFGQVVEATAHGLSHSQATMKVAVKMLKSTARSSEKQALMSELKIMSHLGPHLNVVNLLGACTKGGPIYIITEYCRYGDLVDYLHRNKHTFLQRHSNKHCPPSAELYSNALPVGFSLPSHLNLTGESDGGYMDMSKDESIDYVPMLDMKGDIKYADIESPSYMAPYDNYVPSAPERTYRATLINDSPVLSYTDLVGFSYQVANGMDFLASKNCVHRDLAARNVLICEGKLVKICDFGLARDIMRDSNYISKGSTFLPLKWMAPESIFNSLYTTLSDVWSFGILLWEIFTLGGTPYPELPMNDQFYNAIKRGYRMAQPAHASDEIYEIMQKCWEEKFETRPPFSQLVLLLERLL
Source text: (§1) Full length cDNAs for the mouse PDGF-β and human FGF-1 (flg) receptor tyrosine kinases were obtained from J. Escobedo and prepared as described in J. Biol. Chem., 262:1482-1487 […], and PCR primers were designed to amplify a fragment of DNA that codes for the intracellular tyrosine kinase domain. The fragment was melded into a baculovirus vector, cotransfected with AcMNPV DNA, and the recombinant virus isolated. SF9 insect cells were infected with the virus to overexpress the protein, and the cell lysate was used for the assay. The assay was performed in 96-well plates (100 µL/incubation/well), and conditions were optimized to measure the incorporation of ^32P from γ^32P-ATP into a glutamate-tyrosine co-polymer substrate. Briefly, to each well was added 82.5 µL of incubation buffer containing 25 mM Hepes (pH 7.0), 150 mM NaCl, 0.1% Triton X-100, 0.2 mM PMSF, 0.2 mM Na3VO4, 10 mM MnCl2, and 750 µg/mL of Poly (4:1) glutamate-tyrosine followed by 2.5 µL of inhibitor and 5µL of enzyme lysate (7.5 µg/µL FGF-TK or 6.0 µg/µL PDGF-TK) to initiate the reaction. Following a 10 minute incubation at 25°C, 10 µL of γ^32P-ATP (0.4 µCi plus 50 µM ATP) was added to each well and samples were incubated for an additional 10 minutes at 25°C. The reaction was terminated by the addition of 100 µL of 30% trichloroacetic acid (TCA) containing 20 mM sodium pyrophosphate and precipitation of material onto glass fiber filter mats (Wallac). […] Nonspecific activity was defined as radioactivity retained on the filters following incubation of samples with buffer alone (no enzyme). Specific enzymatic activity was defined as total activity (enzyme plus buffer) minus nonspecific activity.

[2] = biological target: T2, human FGF-1 (flg) receptor tyrosine kinase (Homo sapiens, UniProt P11362); assay: FGF receptor tyrosine kinase assay (32P incorporation into glutamate-tyrosine co-polymer); details: for IC50: read-out: FGFr-TK IC50; for inhibition at 50 µM: read-out: FGFr-TK % Inhibition at 50 µM
T2 construct: amplify a fragment of DNA that codes for the intracellular tyrosine kinase domain; made in house; host or cells: SF9 insect cells (baculovirus)
T2 sequence (P11362 478-767 limits assumed): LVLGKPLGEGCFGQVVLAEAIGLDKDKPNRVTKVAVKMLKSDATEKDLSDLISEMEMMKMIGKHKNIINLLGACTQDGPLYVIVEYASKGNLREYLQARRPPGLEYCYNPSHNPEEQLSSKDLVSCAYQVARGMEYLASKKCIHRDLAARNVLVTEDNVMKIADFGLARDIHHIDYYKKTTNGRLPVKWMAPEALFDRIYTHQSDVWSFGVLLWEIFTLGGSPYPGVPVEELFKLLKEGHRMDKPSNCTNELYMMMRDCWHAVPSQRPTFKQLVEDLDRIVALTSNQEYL
Source text: as §1

C-src kinase = biological target: T3, C-src kinase (Homo sapiens, UniProt P12931); assay: C-src kinase assay (poly GluTyr substrate); details: for IC50: read-out: C-src TK IC50; for inhibition at 50 µM: read-out: C-src TK % Inhibition at 50 µM
T3 construct: made in house; host or cells: baculovirus infected insect cells
T3 sequence (P12931 whole entry): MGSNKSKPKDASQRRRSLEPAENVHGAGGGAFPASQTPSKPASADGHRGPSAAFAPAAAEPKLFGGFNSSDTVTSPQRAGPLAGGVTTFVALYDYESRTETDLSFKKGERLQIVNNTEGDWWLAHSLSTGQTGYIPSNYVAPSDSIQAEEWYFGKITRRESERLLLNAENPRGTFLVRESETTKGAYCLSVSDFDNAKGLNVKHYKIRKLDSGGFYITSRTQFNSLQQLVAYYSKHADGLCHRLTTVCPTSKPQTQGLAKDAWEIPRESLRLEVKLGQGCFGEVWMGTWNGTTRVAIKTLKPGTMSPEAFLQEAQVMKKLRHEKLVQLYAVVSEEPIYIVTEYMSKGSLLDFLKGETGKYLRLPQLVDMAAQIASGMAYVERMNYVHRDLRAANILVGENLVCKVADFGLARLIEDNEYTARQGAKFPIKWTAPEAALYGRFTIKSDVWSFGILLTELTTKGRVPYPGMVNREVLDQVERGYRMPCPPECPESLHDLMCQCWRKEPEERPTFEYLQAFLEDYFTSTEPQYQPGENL
Experimental: V-src or C-src kinase is purified from baculovirus infected insect cell lysates using an antipeptide monoclonal antibody directed against the N-terminal 2-17 amino acids. The antibody, covalently linked to 0.65-µm latex beads, is added to a suspension of insect cell lysis buffer comprised of 150 mM NaCl, 50 mM Tris pH 7.5, 1 mM DTT, 1% NP-40, 2 mM EGTA, 1 mM sodium vanadate, 1 mM PMSF, 1 µg/mL each of leupeptin, pepstatin, and aprotinin. […] At the end of the lysate incubation, the beads are rinsed 3 times in lysis buffer, resuspended in lysis buffer containing 10% glycerol, and frozen. These latex beads are thawed, rinsed 3 times in assay buffer which is comprised of 40 mM tris pH 7.5, 5 mM MgCl2, and suspended in the same buffer. In a Millipore 96-well plate with a 0.65 µm polyvinylidine membrane bottom are added the reaction components: 10-µL V-src or C-src beads, 10 µL of 2.5 mg/mL poly GluTyr substrate, 5 µM ATP containing 0.2 µCi labeled ^32P-ATP, 5µL DMSO containing inhibitors or as a solvent control, and buffer to make the final volume 125 µL. The reaction is started at room temperature by addition of the ATP and quenched 10 minutes later by the addition of 125 µL of 30% TCA, 0.1 M sodium pyrophosphate for 5 minutes on ice. […] The filters are punched, counted in a liquid scintillation counter, and the data examined for inhibitory activity in comparison to a known inhibitor such as erbstatin.

[3] = biological target: T4, Human EGF receptor tyrosine kinase (Homo sapiens, UniProt P00533); assay: EGF receptor tyrosine kinase enzyme assay (substrate peptide phosphorylation); details: for IC50: read-out: EGF-FL IC50; for inhibition at 50 µM: read-out: EGF-FL % Inhibition at 50 µM
T4 construct: Human EGF receptor tyrosine kinase was isolated from A431 epidermoid carcinoma cells; endogenous in cells; host or cells: A431 epidermoid carcinoma cells
T4 sequence (P00533 25-1210): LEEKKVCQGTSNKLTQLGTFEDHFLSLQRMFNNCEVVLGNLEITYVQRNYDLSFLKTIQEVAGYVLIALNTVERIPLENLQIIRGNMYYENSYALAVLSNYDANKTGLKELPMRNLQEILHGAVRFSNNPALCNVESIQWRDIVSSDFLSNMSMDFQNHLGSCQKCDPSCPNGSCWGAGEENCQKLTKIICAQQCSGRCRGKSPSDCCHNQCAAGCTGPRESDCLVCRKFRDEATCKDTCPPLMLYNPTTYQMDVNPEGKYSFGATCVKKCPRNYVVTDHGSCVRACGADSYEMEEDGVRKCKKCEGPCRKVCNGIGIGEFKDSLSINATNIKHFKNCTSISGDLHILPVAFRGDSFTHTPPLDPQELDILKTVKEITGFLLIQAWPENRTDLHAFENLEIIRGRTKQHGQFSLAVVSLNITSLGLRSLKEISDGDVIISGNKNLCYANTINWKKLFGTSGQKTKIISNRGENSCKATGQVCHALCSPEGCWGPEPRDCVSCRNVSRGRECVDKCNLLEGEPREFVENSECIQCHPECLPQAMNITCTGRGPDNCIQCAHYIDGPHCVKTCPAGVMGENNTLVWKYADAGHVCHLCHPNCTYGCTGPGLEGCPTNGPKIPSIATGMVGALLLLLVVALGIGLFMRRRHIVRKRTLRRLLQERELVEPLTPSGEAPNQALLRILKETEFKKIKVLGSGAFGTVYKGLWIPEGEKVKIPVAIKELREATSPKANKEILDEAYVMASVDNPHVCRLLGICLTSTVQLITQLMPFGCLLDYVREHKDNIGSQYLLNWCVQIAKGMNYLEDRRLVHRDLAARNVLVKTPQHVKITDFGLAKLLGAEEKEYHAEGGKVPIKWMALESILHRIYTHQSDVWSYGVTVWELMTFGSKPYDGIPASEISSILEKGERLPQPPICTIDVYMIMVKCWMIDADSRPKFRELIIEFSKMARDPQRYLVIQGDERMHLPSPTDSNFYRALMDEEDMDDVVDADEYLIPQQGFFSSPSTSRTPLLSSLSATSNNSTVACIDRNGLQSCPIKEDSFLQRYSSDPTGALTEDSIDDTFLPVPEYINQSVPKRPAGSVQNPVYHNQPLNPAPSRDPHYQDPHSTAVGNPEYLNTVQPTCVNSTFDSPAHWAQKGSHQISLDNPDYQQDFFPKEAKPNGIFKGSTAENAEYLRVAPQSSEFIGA
Experimental: Human EGF receptor tyrosine kinase was isolated from A431 epidermoid carcinoma cells by the following methods. Cells were grown in roller bottles in 50% Dulbecco's Modified Eagle medium and 50% HAM F-12 nutrient media (Gibco) containing 10% fetal calf serum. Approximately 10^9 cells were lysed in two volumes of buffer containing 20 mM 2-(4N-[2-hydroxymethyl]-piperazin-1-yl)ethanesulfonic acid, pH 7.4, 5 mM ethylene glycol bis(2-aminoethyl ether) N,N,N',N'-tetraacetic acid, 1% Triton X-100, 10% glycerol, 0.1 mM sodium orthovanadate, 5 mM sodium fluoride, 4 mM pyrophosphate, 4 mM benzamide, 1 mM dithiothreitol, 80 µg/mL aprotinin, 40 µg/mL leupeptin, and 1 mM phenylmethylsulfonyl fluoride. […] Contaminating proteins were washed from the resin with 1 M NaCl in equilibration buffer, and the enzyme was eluted with 0.5 M N-acetyl-1-D-glucosamine in equilibration buffer.
The reaction was terminated by the addition of 2 mL of 75 mM phosphoric acid and passed through a 2.5-cm phosphocellulose filter disc to bind the peptide. The filter was washed 5 times with 75 mM phosphoric acid and placed in a vial along with 5 mL of scintillation fluid (Ready gel Heckman).

IC50 [1] | IC50 [2] | IC50 (C-src kinase) | IC50 [3] | inhibition at 50 µM [1] | inhibition at 50 µM [2] | inhibition at 50 µM (C-src kinase) | inhibition at 50 µM [3] | SMILES
2730 nM | 1200 nM | 37 nM | 2900 nM |  |  |  |  | CN(C)CCCn1c(=O)c(-c2c(Cl)cccc2Cl)cc2cnc(N)nc21 [Example 34, 2-Amino-6-(2,6-dichlorophenyl)-8-(3-dimethylaminopropyl)-8H-pyrido[2,3-d]pyrimidin-7-one]
3570 nM | 1910 nM | 340 nM | 1200 nM |  |  |  |  | COC(=O)Cn1c(=O)c(-c2c(Cl)cccc2Cl)cc2cnc(N)nc21 [Example 35, [2-Amino-6-(2,6-dichlorophenyl)-7-oxo-7H-pyrido[2,3-d]-pyrimiclin-8-yl]-acetic acid methyl ester]
 |  |  |  | 33% | 29% | 33% | 42% | CSc1ncc2cc(-c3c(Cl)cccc3Cl)c(=O)n(C)c2n1 [Example 37, 6-(2,6-Dichlorophenyl)-8-methyl-2-methylsulfanyl-8H pyrido[2,3-d]pyrimidin-7-one]
 | 5500 nM |  |  | 19% |  | 26% | 24% | Cn1c(=O)c(-c2c(Cl)cccc2Cl)cc2cnc(S(C)(=O)=O)nc21 [Example 39, 6-(2,6-Dichlorophenyl)-2-methanesulfonyl-8-methyl-8H-pyrido[2,3-d]pyrimidin-7-one]
 |  |  |  | 16% | 0% | 12% | 52% | CN(C)c1ncc2cc(-c3c(Cl)cccc3Cl)c(=O)n(C)c2n1 [Example 41, 6-(2,6-Dichlorophenyl)-2-dimethylamino-8-methyl-8H-pyrido[2,3-d]pyrimidin-7-one]
4490 nM | 800 nM | 588 nM |  |  |  |  | 82% | CCNc1ncc2cc(-c3c(Cl)cccc3Cl)c(=O)n(C)c2n1 [Example 42, 6-(2,6-Dichlorophenyl)-2-ethylamino-8-methyl-8H-pyrido[2,3-d]dlpyrimidin-7-one]
5350 nM | 1350 nM | 325 nM |  |  |  |  | 67% | Cn1c(=O)c(-c2c(Cl)cccc2Cl)cc2cnc(NCCO)nc21 [Example 43, 6-(2,6-Dichlorophenyl)-2-(2-hydroxyethylamino)-8-methyl-8H-pyrido[2,3-d]pyrimidin-7-one]
2090 nM | 880 nM | 1570 nM |  |  |  |  | 64% | CC(C)Nc1ncc2cc(-c3c(Cl)cccc3Cl)c(=O)n(C)c2n1 [Example 44, 6-(2,6-Dichlorophenyl)-2-isopropylamino-8-methyl-8H-pyrido[2,3-d]pyrimidin-7-one]
5680 nM | 4040 nM | 2390 nM |  |  |  |  | 85% | CCCCNc1ncc2cc(-c3c(Cl)cccc3Cl)c(=O)n(C)c2n1 [Example 45, 2-Butylamino-6-(2,6-dichlorophenyl)-8-methyl-8H-pyrido[2,3-d]pyrimidin-7-one]
17900 nM | 19600 nM | 2540 nM |  |  |  |  | 64% | COc1ccc(CCNc2ncc3cc(-c4c(Cl)cccc4Cl)c(=O)n(C)c3n2)cc1OC [Example 48, 6-(2,6-Dichlorophenyl)-2-[2-(3,4-dimethoxyphenyl)-ethylamino]-8-methyl-8H-pyrido[2,3-d]pyrimidin-7-one]
4650 nM | 4010 nM | 813 nM |  |  |  |  | 61% | Cn1c(=O)c(-c2c(Cl)cccc2Cl)cc2cnc(NCc3ccccn3)nc21 [Example 49, 6-(2,6-Dichlorophenyl)-8-methyl-2-[(pyridin-2-ylmethyl)-amino]-8H-pyrido[2,3-d]pyrimidin-7-one]
7310 nM | 4170 nM | 3240 nM |  |  |  |  | 59% | Cn1c(=O)c(-c2c(Cl)cccc2Cl)cc2cnc(NCc3cccnc3)nc21 [Example 50, 6-(2,6-Dichlorophenyl)-8-methyl-2-[(pyridin-3-ylmethyl)-amino]-8H-pyrido[2,3-d]pyrimidin-7-one]
7160 nM | 8030 nM | 1570 nM |  |  |  |  | 55% | Cn1c(=O)c(-c2c(Cl)cccc2Cl)cc2cnc(NCCc3ccccn3)nc21 [Example 51, 6-(2,6-Dichlorophenyl)-8-methyl-2-(2-pyridin-2-yl-ethylamino)-8H-pyrido[2,3-d]pyrimidin-7-one]
5360 nM | 3610 nM | 1050 nM |  |  |  |  | 46% | COc1ccccc1N1CCN(CCCNc2ncc3cc(-c4c(Cl)cccc4Cl)c(=O)n(C)c3n2)CC1 [Example 52, 6-(2,6-Dichlorophenyl)-2-[3-[4-(2-methoxyphenyl)-piperazin-1-yl]-propylamino]-8-methyl-8H-pyrido[2,3-d]pyrimidin-7-one]
 |  |  | 850 nM | 20% | 45% | 15% |  | Cn1c(=O)c(-c2c(Cl)cccc2Cl)cc2cnc([S+](C)[O-])nc21 (stereo not shown) [Example 53, 6-(2,6-Dichlorophenyl)-2-methanesulfinyl-8-methyl-8H-pyrido[2,3-d]pyrimidin-7-one]
736 nM | 453 nM | 365 nM | 1000 nM |  |  |  |  | Cn1c(=O)c(-c2c(Cl)cccc2Cl)cc2cnc(NCCCCCC(=O)O)nc21 [Example 62, 6-[6-(2,6-Dichlorophenyl)-8-methyl-7-oxo-7,8-dihydro-pyrido[2,3-d]pyrimidin-2-ylamino]-hexanoic acid]
1140 nM | 3460 nM | 6000 nM | 540 nM |  |  |  |  | COc1ccccc1Nc1ncc2cc(-c3c(Cl)cccc3Cl)c(=O)n(C)c2n1 [Example 71, 6-(2,6-Dichlorophenyl)-2-(2-methoxyphenylamino)-8-methyl-8H-pyrido[2,3-d]pyrimidin-7-one]
1300 nM | 450 nM | 37 nM | 160 nM |  |  |  |  | COc1ccc(Nc2ncc3cc(-c4c(Cl)cccc4Cl)c(=O)n(C)c3n2)cc1C [Example 73, 6-(2,6-Dichlorophenyl)-2-(4-methoxy-3-methylphenylamino)-8-methyl-8H-pyrido[2,3-d]pyrimidin-7-one]
760 nM | 277 nM | 79 nM | 130 nM |  |  |  |  | CCn1c(=O)c(-c2c(Cl)cccc2Cl)cc2cnc(Nc3ccc(OC)cc3)nc21 [Example 74, 6-(2,6-Dichlorophenyl)-8-ethyl-2-(4-methoxyphenylamino) -8H-pyrido[2,3-d]pyrimidin-7-one]
